Experimental data as given in ChEMBL document CHEMBL6121021, “Design and Synthesis of Topoisomerases-Histone Deacetylase Dual Targeted Quinoline-Bridged Hydroxamates as Anticancer Agents” (J Med Chem, 2025).
pIC50: −log10 of the molar value.

Tests used:
Histone deacetylase 1 = Histone deacetylase 1 (Homo sapiens, UniProt Q13547); assay: Inhibition of HDAC1 (unknown origin)
Histone deacetylase 2 = Histone deacetylase 2 (Homo sapiens, UniProt Q92769); assay: Inhibition of HDAC2 (unknown origin)
Histone deacetylase 3 = Histone deacetylase 3 (Homo sapiens, UniProt O15379); assay: Inhibition of HDAC3 (unknown origin)
Histone deacetylase 4 = Histone deacetylase 4 (Homo sapiens, UniProt P56524); assay: Inhibition of HDAC4 (unknown origin)
Histone deacetylase 8 = biological target: T1, Histone deacetylase 8 (Homo sapiens, UniProt Q9BY41); assay: Inhibition of HDAC8 (unknown origin)
T1 sequence (Q9BY41 whole entry): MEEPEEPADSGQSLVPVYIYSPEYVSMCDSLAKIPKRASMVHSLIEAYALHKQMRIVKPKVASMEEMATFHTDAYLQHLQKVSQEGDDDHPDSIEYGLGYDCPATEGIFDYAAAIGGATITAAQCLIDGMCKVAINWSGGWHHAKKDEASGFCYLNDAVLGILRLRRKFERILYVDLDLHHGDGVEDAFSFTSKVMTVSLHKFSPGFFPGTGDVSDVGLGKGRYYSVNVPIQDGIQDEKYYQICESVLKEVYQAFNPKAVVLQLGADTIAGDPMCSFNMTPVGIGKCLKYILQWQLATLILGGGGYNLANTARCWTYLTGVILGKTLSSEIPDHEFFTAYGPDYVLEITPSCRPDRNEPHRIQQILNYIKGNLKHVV

[1] = biological target: T2, Protein deacetylase HDAC6 (Homo sapiens, UniProt Q9UBN7); assay: Inhibition of HDAC6 (unknown origin)
T2 sequence (Q9UBN7 whole entry): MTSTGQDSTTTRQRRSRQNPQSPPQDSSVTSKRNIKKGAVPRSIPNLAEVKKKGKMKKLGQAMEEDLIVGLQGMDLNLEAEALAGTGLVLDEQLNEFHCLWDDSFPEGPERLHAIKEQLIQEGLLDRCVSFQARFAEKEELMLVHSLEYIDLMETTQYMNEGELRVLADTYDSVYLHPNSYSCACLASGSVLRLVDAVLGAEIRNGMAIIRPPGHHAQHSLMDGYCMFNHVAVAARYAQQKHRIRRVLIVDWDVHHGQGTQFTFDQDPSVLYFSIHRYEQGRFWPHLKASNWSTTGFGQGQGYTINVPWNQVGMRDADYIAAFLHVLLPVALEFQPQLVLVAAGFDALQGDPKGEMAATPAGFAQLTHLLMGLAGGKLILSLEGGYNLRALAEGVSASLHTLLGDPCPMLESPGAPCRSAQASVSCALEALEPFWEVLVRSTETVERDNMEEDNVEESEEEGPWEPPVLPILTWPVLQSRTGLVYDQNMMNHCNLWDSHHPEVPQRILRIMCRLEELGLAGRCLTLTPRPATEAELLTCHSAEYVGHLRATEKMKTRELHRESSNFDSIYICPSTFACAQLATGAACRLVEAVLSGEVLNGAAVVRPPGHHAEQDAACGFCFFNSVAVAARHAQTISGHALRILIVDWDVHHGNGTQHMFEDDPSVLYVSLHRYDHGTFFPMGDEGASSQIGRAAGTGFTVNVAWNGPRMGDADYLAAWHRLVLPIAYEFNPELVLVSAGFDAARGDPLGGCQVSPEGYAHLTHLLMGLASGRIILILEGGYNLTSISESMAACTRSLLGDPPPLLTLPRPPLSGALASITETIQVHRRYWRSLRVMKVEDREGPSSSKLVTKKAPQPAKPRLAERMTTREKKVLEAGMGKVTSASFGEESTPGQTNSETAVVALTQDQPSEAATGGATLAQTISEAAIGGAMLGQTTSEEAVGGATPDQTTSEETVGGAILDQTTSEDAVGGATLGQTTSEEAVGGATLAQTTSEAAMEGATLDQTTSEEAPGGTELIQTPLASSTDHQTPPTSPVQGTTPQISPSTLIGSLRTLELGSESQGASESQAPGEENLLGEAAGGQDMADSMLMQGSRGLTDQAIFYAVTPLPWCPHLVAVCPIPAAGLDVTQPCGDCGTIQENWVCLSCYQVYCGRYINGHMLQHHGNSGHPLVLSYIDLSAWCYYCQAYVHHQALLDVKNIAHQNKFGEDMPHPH

Histone deacetylase 11 = Histone deacetylase 11 (Homo sapiens, UniProt Q96DB2); assay: Inhibition of HDAC11 (unknown origin)
[2] = biological target: Polyamine deacetylase HDAC10 (Homo sapiens, UniProt Q969S8); assay: Inhibition of HDAC10 (unknown origin)
Sequence of Polyamine deacetylase HDAC10 (Q969S8 whole entry): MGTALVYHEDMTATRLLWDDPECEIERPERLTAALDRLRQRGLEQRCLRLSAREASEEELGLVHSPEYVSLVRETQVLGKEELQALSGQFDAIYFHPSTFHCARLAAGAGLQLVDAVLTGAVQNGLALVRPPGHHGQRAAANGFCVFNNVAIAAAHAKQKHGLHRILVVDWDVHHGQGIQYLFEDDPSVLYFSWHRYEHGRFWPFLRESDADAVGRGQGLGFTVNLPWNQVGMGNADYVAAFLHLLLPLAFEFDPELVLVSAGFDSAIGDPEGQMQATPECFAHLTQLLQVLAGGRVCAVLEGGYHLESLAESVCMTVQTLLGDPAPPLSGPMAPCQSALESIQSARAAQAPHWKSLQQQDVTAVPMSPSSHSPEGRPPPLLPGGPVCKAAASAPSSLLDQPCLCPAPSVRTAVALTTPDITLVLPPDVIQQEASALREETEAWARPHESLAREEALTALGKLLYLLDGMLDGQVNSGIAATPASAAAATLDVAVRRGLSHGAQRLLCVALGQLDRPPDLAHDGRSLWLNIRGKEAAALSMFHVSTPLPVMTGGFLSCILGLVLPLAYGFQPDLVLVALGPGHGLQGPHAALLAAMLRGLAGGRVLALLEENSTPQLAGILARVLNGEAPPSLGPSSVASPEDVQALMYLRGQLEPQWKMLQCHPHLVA

Sequence of Histone deacetylase 1 (Q13547 whole entry): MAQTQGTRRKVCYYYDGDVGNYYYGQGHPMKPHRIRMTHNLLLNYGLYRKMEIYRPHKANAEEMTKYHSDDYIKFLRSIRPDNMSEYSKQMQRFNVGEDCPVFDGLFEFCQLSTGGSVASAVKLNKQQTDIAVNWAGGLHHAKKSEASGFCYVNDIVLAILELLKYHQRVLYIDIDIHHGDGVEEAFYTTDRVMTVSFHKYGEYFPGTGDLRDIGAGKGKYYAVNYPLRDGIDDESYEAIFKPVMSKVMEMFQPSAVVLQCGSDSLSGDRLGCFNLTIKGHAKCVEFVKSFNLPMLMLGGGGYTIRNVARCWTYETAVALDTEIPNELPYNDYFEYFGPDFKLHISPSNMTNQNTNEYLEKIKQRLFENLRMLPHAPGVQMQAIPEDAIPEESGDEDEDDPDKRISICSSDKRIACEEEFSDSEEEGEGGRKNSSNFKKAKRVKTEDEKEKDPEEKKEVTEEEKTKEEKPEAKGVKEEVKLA
Sequence of Histone deacetylase 3 (O15379 whole entry): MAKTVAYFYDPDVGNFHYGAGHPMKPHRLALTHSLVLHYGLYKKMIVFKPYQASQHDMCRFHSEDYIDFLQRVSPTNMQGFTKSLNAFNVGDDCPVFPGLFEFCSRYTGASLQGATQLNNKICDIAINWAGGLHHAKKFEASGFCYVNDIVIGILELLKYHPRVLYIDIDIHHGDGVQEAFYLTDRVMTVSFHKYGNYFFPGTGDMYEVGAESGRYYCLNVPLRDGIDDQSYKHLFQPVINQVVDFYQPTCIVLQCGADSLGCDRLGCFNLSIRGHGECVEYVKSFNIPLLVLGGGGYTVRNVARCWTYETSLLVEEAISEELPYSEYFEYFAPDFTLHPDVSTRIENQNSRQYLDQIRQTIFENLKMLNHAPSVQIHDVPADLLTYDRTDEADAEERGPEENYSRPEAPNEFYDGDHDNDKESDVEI
Sequence of Histone deacetylase 11 (Q96DB2 whole entry): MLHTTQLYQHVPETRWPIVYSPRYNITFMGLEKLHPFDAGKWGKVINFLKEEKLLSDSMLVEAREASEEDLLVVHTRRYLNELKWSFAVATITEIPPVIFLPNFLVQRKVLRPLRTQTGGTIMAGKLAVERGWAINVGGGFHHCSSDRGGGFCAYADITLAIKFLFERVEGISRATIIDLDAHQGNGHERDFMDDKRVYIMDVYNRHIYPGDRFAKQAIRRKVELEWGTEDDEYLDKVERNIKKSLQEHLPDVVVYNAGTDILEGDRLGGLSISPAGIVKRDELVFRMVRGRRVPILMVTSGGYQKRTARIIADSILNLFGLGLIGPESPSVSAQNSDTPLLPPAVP
Sequence of Histone deacetylase 4 (P56524 whole entry): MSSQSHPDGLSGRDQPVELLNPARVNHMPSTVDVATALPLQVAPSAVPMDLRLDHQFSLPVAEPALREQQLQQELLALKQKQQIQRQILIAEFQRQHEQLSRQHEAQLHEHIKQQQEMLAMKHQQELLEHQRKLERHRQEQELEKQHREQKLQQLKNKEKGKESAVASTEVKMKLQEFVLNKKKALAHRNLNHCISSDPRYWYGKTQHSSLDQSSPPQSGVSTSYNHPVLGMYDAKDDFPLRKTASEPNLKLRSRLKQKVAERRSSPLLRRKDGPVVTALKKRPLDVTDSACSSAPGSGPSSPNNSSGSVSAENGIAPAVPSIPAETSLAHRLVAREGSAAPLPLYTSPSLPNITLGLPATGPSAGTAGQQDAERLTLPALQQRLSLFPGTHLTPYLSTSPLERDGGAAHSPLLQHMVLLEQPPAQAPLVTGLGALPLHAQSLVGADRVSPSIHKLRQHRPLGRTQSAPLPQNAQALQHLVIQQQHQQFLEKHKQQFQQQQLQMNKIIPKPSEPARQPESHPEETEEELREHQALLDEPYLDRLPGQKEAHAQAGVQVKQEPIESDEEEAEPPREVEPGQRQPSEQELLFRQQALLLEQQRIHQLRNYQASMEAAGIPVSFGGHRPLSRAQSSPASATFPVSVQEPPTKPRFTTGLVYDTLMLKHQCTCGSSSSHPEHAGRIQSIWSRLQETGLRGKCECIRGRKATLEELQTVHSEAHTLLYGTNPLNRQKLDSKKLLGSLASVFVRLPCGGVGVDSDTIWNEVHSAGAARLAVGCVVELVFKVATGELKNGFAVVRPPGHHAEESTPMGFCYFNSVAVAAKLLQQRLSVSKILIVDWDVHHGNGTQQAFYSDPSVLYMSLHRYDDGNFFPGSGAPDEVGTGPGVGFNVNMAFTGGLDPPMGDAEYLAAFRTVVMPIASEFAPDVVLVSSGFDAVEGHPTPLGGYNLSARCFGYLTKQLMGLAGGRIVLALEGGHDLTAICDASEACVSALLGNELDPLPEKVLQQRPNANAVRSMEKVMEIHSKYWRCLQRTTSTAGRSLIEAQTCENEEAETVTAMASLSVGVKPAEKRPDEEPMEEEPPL
Sequence of Histone deacetylase 2 (Q92769 whole entry): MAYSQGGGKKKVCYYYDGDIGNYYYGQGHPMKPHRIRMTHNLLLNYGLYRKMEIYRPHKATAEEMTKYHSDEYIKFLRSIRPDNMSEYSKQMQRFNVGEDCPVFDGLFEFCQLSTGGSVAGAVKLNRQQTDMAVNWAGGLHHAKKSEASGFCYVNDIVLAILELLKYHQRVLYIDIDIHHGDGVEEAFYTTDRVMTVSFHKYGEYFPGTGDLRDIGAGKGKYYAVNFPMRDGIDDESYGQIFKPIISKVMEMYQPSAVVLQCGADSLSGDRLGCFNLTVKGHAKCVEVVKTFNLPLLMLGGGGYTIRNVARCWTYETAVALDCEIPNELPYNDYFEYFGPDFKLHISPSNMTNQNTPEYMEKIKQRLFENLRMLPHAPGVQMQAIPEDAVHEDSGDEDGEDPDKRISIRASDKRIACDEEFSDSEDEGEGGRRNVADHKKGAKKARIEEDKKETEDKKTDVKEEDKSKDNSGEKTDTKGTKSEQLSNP

For `CN1c2ccccc2C(=O)N2[C@H](C(=O)Nc3ccc(C(=O)Nc4ccccc4N)cc3)Cc3c([nH]c4ccccc34)[C@@H]12`, the pIC50 (Histone deacetylase 1) was 9.80, the pIC50 (Histone deacetylase 2) was 8.00 and the pIC50 (Histone deacetylase 3) was 7.57. For the same compound, the pIC50 (Histone deacetylase 4) was < 7.00, the pIC50 (Histone deacetylase 8) was < 7.00 and the pIC50 [1] was < 7.00. For the same compound, the pIC50 (Histone deacetylase 11) was < 7.00 and the pIC50 [2] was 8.26.
